Assay results from patent publication US9694016B2 (Novartis AG, priority 2013, dated 2017).
Read-outs that look alike come from different tables or passages of the source.

Columns and labels:
[1] = target: T1, b-Raf (V600E) (Homo sapiens (Human), UniProt P15056, V600E); assay: biochemical
[2] = target: T1, b-Raf (V600E); details: read-out: b-Raf IC-50, AlphaScreen
[3] = 60 min pre-incubation, 3 hours reaction
[4] = 60 min pre-incubation, reaction 3 hours at room temperature

T1 sequence (P15056 whole entry V600E): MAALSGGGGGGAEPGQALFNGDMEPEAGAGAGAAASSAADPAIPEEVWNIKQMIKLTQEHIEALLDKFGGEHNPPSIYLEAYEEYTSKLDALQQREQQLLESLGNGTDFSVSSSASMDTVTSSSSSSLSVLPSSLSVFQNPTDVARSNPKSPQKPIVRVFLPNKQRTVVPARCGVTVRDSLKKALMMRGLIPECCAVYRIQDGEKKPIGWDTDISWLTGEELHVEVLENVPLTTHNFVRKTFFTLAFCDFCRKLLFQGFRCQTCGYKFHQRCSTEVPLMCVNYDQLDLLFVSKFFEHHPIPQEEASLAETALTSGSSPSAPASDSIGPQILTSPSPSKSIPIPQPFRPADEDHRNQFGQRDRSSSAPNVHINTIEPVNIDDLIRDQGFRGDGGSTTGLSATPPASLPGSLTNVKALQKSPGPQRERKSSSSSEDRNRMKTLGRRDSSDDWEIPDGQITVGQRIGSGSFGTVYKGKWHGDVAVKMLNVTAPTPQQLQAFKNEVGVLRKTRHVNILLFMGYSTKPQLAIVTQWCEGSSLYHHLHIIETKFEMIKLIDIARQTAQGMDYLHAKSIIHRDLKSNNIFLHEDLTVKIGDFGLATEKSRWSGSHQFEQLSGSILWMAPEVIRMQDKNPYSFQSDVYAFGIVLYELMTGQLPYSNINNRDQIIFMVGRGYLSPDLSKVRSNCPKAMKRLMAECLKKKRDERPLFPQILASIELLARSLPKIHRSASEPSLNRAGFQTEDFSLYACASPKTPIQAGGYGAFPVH

| Compound | IC50 [1] [nM] | also measured |
| --- | --- | --- |
| Cc1ccc(NC(=O)c2ccnc(C(C)(C)C#N)c2)cc1-c1cc(N2CCOCC2)c(OC(C)C)nn1 [Example 596, 2-(2-cyanopropan-2-yl)-N-(3-(6-isopropoxy-5-morpholinopyridazin-3-yl)-4-methylphenyl)isonicotinamide] | 1.3 | – |
| Cc1ncc(NC(=O)c2cccc(C(F)(F)F)c2)cc1-c1cnc(OC[C@H](C)O)c(N2CCOCC2)c1 [Example 1022, (S)—N-(6′-(2-hydroxypropoxy)-2-methyl-5′-morpholino-[3,3′-bipyridin]-5-yl)-3-(trifluoromethyl)benzamide] | 1.49 | – |
| Cc1ccc(NC(=O)c2ccc(CO)c(C(F)(F)F)c2)cc1-c1cc(N2CCOCC2)c(=O)n(C)c1 [Example 462, 4-(hydroxymethyl)-N-(4-methyl-3-(1-methyl-5-morpholino-6-oxo-1,6-dihydropyridin-3-yl)phenyl)-3-(trifluoromethyl)benzamide] | 3.7 | – |
| Cc1cc(C(=O)Nc2ccc(C)c(-c3cc4[nH]cnc4c(N4CCOCC4)n3)c2)n(C)n1 [Example 817, 1,3-dimethyl-N-(4-methyl-3-(4-morpholino-1H-imidazo[4,5-c]pyridin-6-yl)phenyl)-1H-pyrazole-5-carboxamide] | 200 | – |
| Cc1ccc(NC(=O)c2cccc(C(F)(F)F)c2)cc1-c1nc2c(c(N3CCOCC3)n1)CCNC2 [Example 834, N-(4-methyl-3-(4-morpholino-5,6,7,8-tetrahydropyrido[3,4-d]pyrimidin-2-yl)phenyl)-3-(trifluoromethyl)benzamide] | 0.6 | – |
| CNCc1ccc(C(=O)Nc2cnc(C)c(-c3cc(N4CCOCC4)c4nccn4c3)c2)cc1C(F)(F)F [Example 885, N-(6-methyl-5-(8-morpholinoimidazo[1,2-a]pyridin-6-yl)pyridin-3-yl)-4-((methylamino)methyl)-3-(trifluoromethyl)benzamide] | 12.3 | – |
| Cc1ncc(NC(=O)c2cccc(C(F)(F)F)c2)cc1-c1cc(N2CCOCC2)nc(NC[C@@H](C)O)n1 [Example 743, (R)—N-(5-(2-((2-hydroxypropyl)amino)-6-morpholinopyrimidin-4-yl)-6-methylpyridin-3-yl)-3-(trifluoromethyl)benzamide] | 3.7 | – |
| Cc1ccc(NC(=O)c2ccnc(C(C)(F)F)c2)cc1-c1ccnc(N2CCOCC2)c1 [Example 1137, 2-(1,1-difluoroethyl)-N-(4-methyl-3-(2-morpholinopyridin-4-yl)phenyl)isonicotinamide] | 0.62 | – |
| Cc1ccc(NC(=O)c2cn(C(C)C)nc2C)cc1-c1cc2[nH]cnc2c(N2CCOCC2)n1 [Example 816, 1-isopropyl-3-methyl-N-(4-methyl-3-(4-morpholino-1H-imidazo[4,5-c]pyridin-6-yl)phenyl)-1H-pyrazole-4-carboxamide] | 17.4 | – |
| Cc1ccc(NC(=O)c2cc(C3CC3)on2)cc1-c1cc2[nH]cnc2c(N2CCOCC2)n1 [Example 820, 5-cyclopropyl-N-(4-methyl-3-(4-morpholino-1H-imidazo[4,5-c]pyridin-6-yl)phenyl)isoxazole-3-carboxamide] | 1.4 | – |
| Cc1ccc(NC(=O)c2ccnc(C(C)(C)O)c2)cc1-c1cc2[nH]cnc2c(N2CCOCC2)n1 [Example 823, 2(2-hydroxypropan-2-yl)-N-(4-methyl-3-(4-morpholino-1H-imidazo[4,5-c]pyridin-6-yl)phenyl)isonicotinamide] | 9.4 | – |
| Cc1ncc(NC(=O)c2cccc(C(F)(F)F)c2)cc1-c1cnc(O[C@H](C)CO)c(N2CCOCC2)c1 [Example 1021, (R)—N-(6′-((1-hydroxypropan-2-yl)oxy)-2-methyl-5′-morpholino-[3,3′-bipyridin]-5-yl)-3-(trifluoromethyl)benzamide] | 2.6 | – |
| CCOc1ncc(-c2cc(C(=O)Nc3cccc(C(C)(C)O)c3)ccc2C)cc1N1CCOCC1 [Example 236, 3-(6-ethoxy-5-morpholinopyridin-3-yl)-N-(3-(2-hydroxypropan-2-yl)phenyl)-4-methylbenzamide] | 1.6 | – |
| CCOc1nnc(-c2cc(NC(=O)c3cccc(S(C)(=O)=O)c3)ccc2C)cc1N1CCOCC1 [Example 559, N-(3-(6-ethoxy-5-morpholinopyridazin-3-yl)-4-methylphenyl)-3-(methylsulfonyl)benzamide] | 0.9 | – |
| CNCc1ccc(C(=O)Nc2ccc(C)c(-c3cc(N4CCOCC4)c4nccn4c3)c2)cc1C(F)(F)F [Example 853, N-(4-methyl-3-(8-morpholinoimidazo[1,2-a]pyridin-6-yl)phenyl)-4-((methylamino)methyl)-3-(trifluoromethyl)benzamide] | 2.4 | – |
| Cc1ccc(C(=O)Nc2ccc(CN)c(C(F)(F)F)c2)cc1-c1cc(N2CCOCC2)c(=O)n(C)c1 [Example 467, N-(4-(aminomethyl)-3-(trifluoromethyl)phenyl)-4-methyl-3-(1-methyl-5-morpholino-6-oxo-1,6-dihydropyridin-3-yl)benzamide] | 12.1 | – |
| CCn1cc(C(=O)Nc2ccc(C)c(-c3cc4[nH]cnc4c(N4CCOCC4)n3)c2)c(C)n1 [Example 814, 1-ethyl-3-methyl-N-(4-methyl-3-(4-morpholino-1H-imidazo[4,5-c]pyridin-6-yl)phenyl)-1H-pyrazole-4-carboxamide] | 32.1 | – |

| Compound | IC50 [1] [nM] | also measured |
| --- | --- | --- |
| Cc1ccc(NC(=O)c2cc(CO)cc(C(F)(F)F)c2)cc1-c1cc(N2CCOCC2)c(=O)n(C)c1 [Example 469, 3-(hydroxymethyl)-N-(4-methyl-3-(1-methyl-5-morpholino-6-oxo-1,6-dihydropyridin-3-yl)phenyl)-5-(trifluoromethyl)benzamide] | 3.1 | – |
| Cc1ncc(NC(=O)c2ccnc(C3(C#N)CC3)c2)cc1-c1cc(N2CCOCC2)c(=O)n(C)n1 [Example 683, 2-(1-cyanocyclopropyl)-N-(6-methyl-5-(1-methyl-5-morpholino-6-oxo-1,6-dihydropyridazin-3-yl)pyridin-3-yl)isonicotinamide] | – | IC50 [2, 3]: 11.2 nM |
| Cc1ncc(NC(=O)c2ccnc(C(C)(C)C#N)c2)cc1-c1cnc(Cl)c(N2CCOCC2)c1 [Example 289, N-(6′-chloro-2-methyl-5′-morpholino-[3,3-bipyridin]-5-yl)-2-(2-cyanopropan-2-yl)isonicotinamide] | – | IC50 ([2]; Table 2, 3 hours reaction): 15.6 nM |
| CCOc1cc(C(=O)Nc2cnc(C)c(-c3cc(N4CCOCC4)c(=O)n(C)c3)c2)ccc1F [Example 395, N-(1′,2-dimethyl-5′-morpholino-6′-oxo-1′,6′-dihydro-[3,3′-bipyridin]-5-yl)-3-ethoxy-4-fluorobenzamide] | – | IC50 ([2]; Table 2, 3 hours reaction): 9.8 nM |
| Cc1ccc(NC(=O)c2cccc(C(F)(F)F)c2)cc1-c1ccnc(N2CCOCC2=O)c1 [Example 1134] | – | IC50 [2, 4]: 4.99 nM |
| Cc1ncc(NC(=O)c2ccnc(C(C)(C)O)c2)cc1-c1cc(N2CCOCC2)c2nccn2c1 [Example 878, 2-(2-hydroxypropan-2-yl)-N-(6-methyl-5-(8-morpholinoimidazo[1,2-a]pyridin-6-yl)pyridin-3-yl)isonicotinamide] | – | IC50 [2, 4]: 100 nM |
| CCOc1ncc(-c2cc(NC(=O)c3cc(C(F)(F)F)c(=O)n(CC)c3)ccc2C)cc1N1CCOCC1 [Example 234, N-(3-(6-ethoxy-5-morpholinopyridin-3-yl)-4-methylphenyl)-1-ethyl-6-oxo-5-(trifluoromethyl)-1,6-dihydropyridine-3-carboxamide] | – | IC50 ([2]; Table 2, 3 hours reaction): 1 nM |
| CCC(F)(F)c1cc(C(=O)Nc2ccc(C)c(-c3cc(N4CCOCC4)c(OC)nn3)c2)ccn1 [Example 549, 2-(1,1-difluoropropyl)-N-(3-(6-methoxy-5-morpholinopyridazin-3-yl)-4-methylphenyl)isonicotinamide] | – | IC50 [2, 3]: 2.1 nM |
| Cc1ccc(NC(=O)c2cccc(C(F)(F)F)c2)cc1-c1nc2c(c(N3CCOCC3)n1)S(=O)(=O)CC2 [Example 857, N-(4-methyl-3-(4-morpholino-5,5-dioxido-6,7-dihydrothieno[3,2-d]pyrimidin-2-yl)phenyl)-3-(trifluoromethyl)benzamide] | – | IC50 [2, 4]: 0.4 nM |
| CCNc1nc(-c2cc(NC(=O)c3ccccc3)ccc2C)cc(N2CCOCC2)n1 [Example 695, N-(3-(2-(ethylamino)-6-morpholinopyrimidin-4-yl)-4-methylphenyl)benzamide] | – | IC50 [2, 3]: 4 nM |
| Cc1ccc(NC(=O)c2cnnc(C(C)(C)C#N)c2)cc1-c1cc(N2CCOCC2)c(OC2CCOCC2)nn1 [Example 583, 6-(2-cyanopropan-2-yl)-N-(4-methyl-3-(5-morpholino-6-((tetrahydro-2H-pyran-4-yl)oxy)pyridazin-3-yl)phenyl)pyridazine-4-carboxamide] | – | IC50 [2, 3]: 1.3 nM |
| Cc1ccc(NC(=O)c2ccnc(C(C)(C)C#N)c2)cc1-c1cc(NC[C@@H](C)O)nc(N2CCOCC2)n1 [Example 1026, (R)-2-(2-cyanopropan-2-yl)-N-(3-(6-((2-hydroxypropyl)amino)-2-morpholinopyrimidin-4-yl)-4-methylphenyl)isonicotinamide] | – | IC50 [2, 4]: 12.9 nM |
| Cc1ncc(NC(=O)c2ccnc(C(C)(C)F)c2)cc1-c1cc(C2COCCO2)nc(N2CCOCC2)c1 (stereo not drawn) [Example 1167, N-(2′-(1,4-dioxan-2-yl)-2-methyl-6′-morpholino-[3,4′-bipyridin]-5-yl)-2-(2-fluoropropan-2-yl)isonicotinamide] | – | IC50 [2, 4]: 7.62 nM |
| Cc1ccc(C(=O)Nc2cccc(C(C)(C)O)c2)cc1-c1cc(N2CCOCC2)n(C)c(=O)c1 [Example 516, N-(3-(2-hydroxypropan-2-yl)phenyl)-4-methyl-3-(1-methyl-6-morpholino-2-oxo-1,2-dihydropyridin-4-yl)benzamide] | – | IC50 [2, 3]: 17.7 nM |
| Cc1ncc(NC(=O)c2ccnc(C(F)(F)F)c2)cc1-c1cc(C2COCCO2)nc(N2CCOCC2)c1 (stereo not drawn) [Example 1165, N-(2′-(1,4-dioxan-2-yl)-2-methyl-6′-morpholino-[3,4′-bipyridin]-5-yl)-2-(trifluoromethyl)isonicotinamide] | – | IC50 [2, 4]: 2.82 nM |
| Cc1ccc(NC(=O)[C@@H]2CCN[C@H](C(F)(F)F)C2)cc1-c1cc(C2COCCO2)nc(N2CCOCC2)c1 (stereo in doubt) [Example 1132, N-(3-(2-(1,4-dioxan-2-yl)-6-morpholinopyridin-4-yl)-4-methylphenyl)-2-(trifluoromethyl)piperidine-4-carboxamide] | – | IC50 [2, 4]: 270 nM |
